Assay: Lateralized olfactory delivery of oxytocin via cannula into the right nostril; brain distribution by mass spectrometry imaging (MSI)
Assay type: in vivo, Sprague-Dawley male rats
Conditions: for Blue Pixel Count (intensity corresponding to oxytocin): 30 mg/kg, 25 μL into right nostril, 2 hours, pixels with B-value exceeding 180
Description: Sprague-Dawley male rats (150˜250 g) n=3 per time point×2 time points were used in this study. Animals were fasted per facility protocols (free access to water). Sedation by 50 mg/kg pentobarbital or equivalent procedure and maintenance with isoflurane. Test article administration: The animal is kept supine with the head kept at an angle to minimize movement of the olfactory plane above zero degrees (to prevent gravity drainage into the olfactory cleft). In this study Oxytocin (30 mg/kg) was delivered via the canulated olfactory delivery model which is: a 0.699 mm diameter cannula with lipophilic ointment spread on the catheter which is carefully inserted into the right nostril with a minimal angle of 20° to the target of the correct meatus. The left nostril is occluded with a non-toxic quick setting compound to prevent cross contamination. During insertion the catheter is rotated gently to advance it through the tight nasal cavity. Once the catheter reaches the ethmoid turbinate it cannot be advance gently anymore (˜15 mm). 25 μL of oxytocin is slowly instilled in the olfactory region (FIGS. 23A-B). The animals were kept sedated for 2 hours. After 2 hours, the animals were humanely euthanized by cervical dislocation. Sample collection: Olfactory bulb and brain: Rats olfactory bulb and brain were collected and snap-freeze in liquid nitrogen. The tissue was stored at −80 C until analysis. Sample Preparation: Olfactory bulb and brain samples was homogenized with ice-cold phosphate buffer saline (pH 7.4) at a ratio of 4 (buffer): 1 (tissue) (v/w). An aliquot of 20 μL homogenate was spiked into 1.5 mL tube, and 100 μL of acetonitrile containing internal standard were added for protein precipitation. The mixture was vortexed, centrifuged at 14000 rpm for 5 min. 80 μL supernatant was transferred into a 96 well plate, and 240 μL of sterile deionized water was added, the mixture was vortexed and injected for LC-MS/MS analysis.
Sample analysis: Test compound in olfactory bulb, brain, and plasma samples will be analyzed by LC/MS/MS. Calibration curve was constructed in blank olfactory bulb homogenate. Using a High-throughput RapifleX MALDI-TOF/TOF mass spectrometer the samples were analyzed utilizing non-labeled detection technologies. This is important as this technique explores the regional distribution patterns of target molecule (FIG. 24). The frozen section of brain tissue was cut into 12 μm sections. Oxytocin at 200, […], 50, 20, 10, 5, 2 ng were used as standard in blank brain slide. And substrate were sprayed on the slides. The sample of the tissue section was ionized and desorbed with the substrate under the excitation of the laser beam. The released ions were identified with mass spectrometer. The detection levels were 2.68 ng/mm^2 (FIGS. 25A-D). To visualize the lateralized drug transfer through the brain the brain was sectioned into olfactory bulb, striatum and cerebrum sections (FIG. 26) and imaged with the Mass Spectrometry Imaging (MSI) system.
The images shown in FIGS. 27A-C were analyzed to estimate the relative concentration of oxytocin on each side of the brain. Image data was converted into a standard RGB color-map, with each of the red (R), green (G), and blue (B) values taking a value between 0 and 255. Pixels with B-values exceeding 180 were counted on each side of the brain, yielding the results in Table 1.

- ratio of blue pixels, targeted over untargeted half of the brain (Cerebrum, 921/638): 1.44
- Blue Pixel Count (intensity corresponding to oxytocin) (Cerebrum, Left hemisphere (untargeted)): 638
- Blue Pixel Count (intensity corresponding to oxytocin) (Cerebrum, Right hemisphere (targeted)): 921
- ratio of blue pixels, targeted over untargeted half of the brain (Olfactory, 962/475): 2.03
- Blue Pixel Count (intensity corresponding to oxytocin) (Olfactory, Left hemisphere (untargeted)): 475
- Blue Pixel Count (intensity corresponding to oxytocin) (Olfactory, Right hemisphere (targeted)): 962
- ratio of blue pixels, targeted over untargeted half of the brain (Striatum, 7055/4085): 1.73
- Blue Pixel Count (intensity corresponding to oxytocin) (Striatum, Left hemisphere (untargeted)): 4085
- Blue Pixel Count (intensity corresponding to oxytocin) (Striatum, Right hemisphere (targeted)): 7055
- excess drug concentration on the targeted side of the brain (across the three studied regions (Cerebrum, Olfactory, Striatum)): 44-103%
- distribution of oxytocin by MSI (FIG. 27A) (olfactory bulb slice): preferential right side distribution
Compound: CC[C@H](C)[C@@H]1NC(=O)[C@H](Cc2ccc(O)cc2)NC(=O)[C@@H](N)CSSC[C@@H](C(=O)N2CCC[C@H]2C(=O)N[C@@H](CC(C)C)C(=O)NCC(N)=O)NC(=O)[C@H](CC(N)=O)NC(=O)[C@H](CCC(N)=O)NC1=O [oxytocin, Oxytocin]
- distribution of oxytocin by MSI (FIG. 27C) (cerebrum slice): lateralization coinciding with the targeted (right) hemisphere
- distribution of oxytocin by MSI (FIG. 27B) (striatum slice): continued preferential right side distribution
